From patent publication US6855711B1, “Pharmaceutical compositions comprising iron chelators for the treatment of neurodegenerative disorders and some novel iron chelators” (Yeda Research and Development Co. Ltd., priority 1999, dated 2005)
Entries after “also recorded” stand apart in the source; their conditions may differ. Read-outs that look alike come from different tables or passages of the source. Marks after values point to notes of the source that are not given here.

Experiments:
[1] = system: iron-induced lipid peroxidation (MDA formation) in rat brain cortex homogenates; assay: Prevention of iron-induced lipid peroxidation (MDA formation, TBA method) in rat brain cortex homogenates; format: biochemical; conditions: 10^−3M chelator; for reduction of iron-induced MDA formation: 10^−4M ferric chloride
Description: The ability of the compounds of the invention to prevent lipid peroxidation in brain tissue was first screened in rat brain homogenates in vitro by a method involving the detection of free radicals performed by […] and measurement of the MDA formation, as described by D. Ben-Shachar et al. (1991) J. Neurochem. 57: 1609-14. In this method, brain cortex homogenates are prepared in sucrose and incubated alone to determine basal lipid peroxidation, or incubated after the addition of Fe2(SO4)3 or FeCl3 for Fe-induction of maximum free-radical formation, and in the presence of the iron chelators to be tested. After addition of TBA, lipid peroxidation is assayed by measurement of MDA formation.
Brain cortex homogenates (10% wt/vol) from male Wistar rats were prepared in 0.3M sucrose and incubated in air as described (Rehncrona et al., (1980) J. Neurochem. 34: 1630-38). Aliquots (0.1 ml) of homogenate were incubated alone at 30° C. for 90 min to determine basal lipid peroxidation, or incubated after the addition of 10^−4 Fe2(SO4), or FeCl3 and in the presence of 10^−3M iron chelator of formula I or II. For the assay, to 0.3 ml of the homogenate there were added 0.2 ml of 8% SDS, 1.5 ml of 20% acetic acid pH 3.0-3.5, 1.5 ml of 0.8% thiobarbituric acid (TBA) and 0.5 ml of H2O2×2, the mixture was incubated at 95° C. for 60 min, cooled and lipid peroxidation was assayed by measurement of malondialdehyde formation at 532 nm, as described (Dexter et al. (1989) J. Neurobiochem. 52: 381-89). Standard curve: 1,1,3,3-tetraethoxypropane 0.1-25 nmol in 0.3 ml.
In another experiment, the Compounds 3, 7, 9-17 and 26 were examined for their ability to inhibit lipid peroxidation in vitro by measuring their capability to inhibit MDA formation in the presence of 10^−4M FeCl3 in rat brain homogenates. Ferric chloride(10^−4M)-induced lipid peroxidation, as measured by MDA formation in rat cerebral cortex homogenates, was inhibited to a different degree by 10^−3M of the various chelators.

[2] = system: 6-OHDA-induced lesion of nigrostriatal dopamine neurons; assay: Prevention of 6-OHDA-induced toxicity in rats (striatal biogenic amines and metabolites by HPLC); format: in vivo, rat
Description: Male Sprague-Dawley rats, weighing 230-270 g, were housed in a controlled-temperature room with a standardized dark-light schedule (12/12 h) for 4 weeks. Rats were anesthetized with a mixture of 15 mg/kg of pentobarbital and 60 mg/kg of chloral hydrate. 6-OHDA (250 μg in 5 μl of 0.9% NaCl containing 0.2% ascorbic acid), the chelator 3 or 15 (200 μg in 5 μl), a combination of both (the chelator 3 or 15 15 min before 6-OHDA), or saline (5 μl) (control) was injected into the right cerebral ventricle using stereotactic techniques. The coordinates with bregma as the reference were D 0.8 mm, L 1.3 mm, and V 3.6 mm according to the atlas of Paxinos and Watson. Pargyline (50 mg/kg i.p.) and desmethylimipramine-HCl (25 mg/kg i.p.) were administered to all the rats 60 min before intracerebroventricular injection. Pargyline inhibits monoamine oxidase and thereby enhances the toxicity of 6-OHDA, and desmethylimipramine provides protection for central noradrenergic neurons from the toxin. All the animals received a daily injection of isotonic glucose (4 ml/day i.p.) until they regained their original body weight. Behavioral tests were performed 4 weeks after operation, commencing between 8 and 10 a.m. The rats were killed after the behavioral studies. Desferal was obtained from Ciba Geigy, and other chemicals were from Sigma (St. Louis, Mo., U.S.A.).
Norepinephrine (NE), DA, and metabolite levels were measured as follows: four weeks postoperatively, rats were killed by decapitation, and the brains were rapidly removed. The striata were dissected on an ice-chilled glass plate and quickly frozen in liquid nitrogen. The endogenous levels of NE, DA, 3,4-dihydroxyphenylacetic acid (DOPAC), and homovanillic acid (HVA) were determined by HPLC with electrochemical detection (Ben-Shachar et al. (1991) Eur. J. Pharmacol. 202:177-83). All data are expressed as mean±SEM values. Statistical analysis was carried out by analysis of variance with multiple comparisons followed by Student's t test.
Striatal dopamine and its metabolites DOPAC and HVA concentrations, which were determined by HPLC, served as a criteria for the extent of the damage caused by 6-OHDA in the presence or absence of the iron chelators. […] Dopamine turnover was normal in rats pretreated with iron chelators (Table 1).
Based on confirmation properties of the two iron chelators 3 and 15, it was considered that Compound 15 has a better chance to cross the blood-brain-barrier (BBB) and the studies were continued with Compound 15. In order to decrease to minimum the possibility of a direct interaction between the chelator and the toxin as a cause for the protection, and to try to find a smaller effective dose of the chelator, 1 μg Compound 15 was injected intraventricularly prior to the injection of 250 μg 6-OHDA.
The main goal at this stage of research was to find out whether Compound 15 given peripherally would be able to prevent 6-OHDA-induced toxicity. In other words the question was whether the chelator will stay stable in the periphery, cross the BBB and […]. Control group received phosphate buffer pH−6.4 0.1M. On the 11th day, the rats of both groups were injected intraventricularly with 250 μg 6-OHDA.

[3] = system: 6-OHDA-induced dopaminergic neuron degeneration; conditions: cited from earlier work
[4] = Table 1: 200 μg chelator intraventricular prior to 250 μg 6-OHDA (Comb.), 6-OHDA = 250 μg 6-OHDA alone
[5] = Table 1: 200 μg chelator intraventricular prior to 250 μg 6-OHDA (Comb.), 6-OHDA = 250 μg 6-OHDA alone, mean±SEM
[6] = Table 2: 1 μg chelator 15 intraventricular prior to 250 μg 6-OHDA (Comb.), 6-OHDA = 250 μg 6-OHDA alone
[7] = Table 3: chelator 15 5 mg/Kg/day i.p. for 10 days + 250 μg 6-OHDA intraventricular (Comb.), 6-OHDA = 250 μg 6-OHDA without chelator
[8] = intracerebroventricular 6-OHDA (250 μg)

Cl.Cl.Cl.Oc1ccc(CN2CCNCC2)c2cccnc12
melting point: 232 to 234 °C (dec.)

Cl.Cl.Cl.Cl.Oc1ccc(CN2CCN(Cc3ccc(O)c4ncccc34)CC2)c2cccnc12
melting point: 227 to 228 °C

O=C(CCC(CN(CC(=O)OCc1ccccc1)CC(=O)OCc1ccccc1)N(CC(=O)OCc1ccccc1)CC(=O)OCc1ccccc1)NCCN1CCN(C(=O)OCc2ccccc2)CC1 (stereo not shown) [Compound 1, N-[2-(4-carbobenzoxypiperazin-1-yl)ethyl]-4,5-bis[bis(benzyloxycarbonylmethyl)amino]valeramide]
reduction of iron-induced MDA formation [1]: ~50%

CC(=O)c1cc(CN2CCN(CCO)CC2)ccc1O [Compound 5, 2-acetyl-4-[4-(2-hydroxyethyl)piperazin-1-yl-methyl]phenol]
melting point: 72 to 75 °C

NCCc1cc(O)c(O)cc1O [Compound 6-OHDA, 6-hydroxydopamine]
decrease in striatal dopamine levels ([2]; 250 μg 6-OHDA intraventricular, rats): 80% | (DOPAC + HAV)/DA (dopamine turnover) [2, 4]: 0.202 | 5-HIAA in rat striatum [2, 5]: 3.76 ± 0.20 pmol/mg tissue | 5-HT in rat striatum [2, 5]: 4.00 ± 0.35 pmol/mg tissue | DA in rat striatum [2, 5]: 19.93 ± 5.0^c pmol/mg tissue | DOPAC in rat striatum [2, 5]: 1.79 ± 0.25^a pmol/mg tissue | HVA in rat striatum [2, 5]: 2.24 ± 0.23 pmol/mg tissue | NE in rat striatum [2, 5]: 5.0 ± 0.1 pmol/mg tissue | 5-HIAA in rat striatum [2, 6]: 6.29 ± 0.65 pmol/mg tissue | 5-HT in rat striatum [2, 6]: 3.22 ± 0.42 pmol/mg tissue | (DOPAC + HAV)/DA (dopamine turnover) [2, 6]: 0.14 | DA in rat striatum [2, 6]: 12.93 ± 3.3^a pmol/mg tissue | DOPAC in rat striatum [2, 6]: 0.76 ± 0.11^a pmol/mg tissue | HVA in rat striatum [2, 6]: 1.10 ± 0.21^a pmol/mg tissue | NE in rat striatum [2, 6]: 1.1 ± 0.1 pmol/mg tissue | 5-HIAA in rat striatum [2, 7]: 1.57 ± 0.07 pmol/mg tissue | 5-HT in rat striatum [2, 7]: 2.60 ± 0.15 pmol/mg tissue | (DOPAC + HAV)/DA (dopamine turnover) [2, 7]: 0.16 | DA in rat striatum [2, 7]: 9.69 ± 2.63^a pmol/mg tissue | DOPAC in rat striatum [2, 7]: 0.51 ± 0.11^A pmol/mg tissue | HVA in rat striatum [2, 7]: 1.05 ± 0.19^A pmol/mg tissue | NE in rat striatum [2, 7]: 1.22 ± 0.04 pmol/mg tissue | increase in DA release as indicated by the HVA/DA ratio [3, 8]: 2.5 fold | reduction in striatal tissue content of DOPAC [3, 8]: 79% | reduction in striatal tissue content of HVA [3, 8]: 70% | reduction in striatal tissue content of dopamine (DA) [3, 8]: 88%

OCCN1CCN(Cc2ccc(O)c3ncccc23)CC1 [Compound 15, 5-(4-(2-hydroxyethyl)piperazin-1-ylmethyl)-8-hydroxyquinoline]
inhibition of MDA formation (lipid peroxidation), in words ([1]; 10^−4M FeCl3, rat cerebral cortex homogenates): most effective | reduction of iron-induced MDA formation [1]: ~50% | prevention of 6-OHDA-induced lesion, in words ([2]; 1 μg intraventricular prior to 250 μg 6-OHDA): effective in preventing 6-OHDA-induced lesion | prevention of 6-OHDA-induced reduction in striatal dopamine and DOPAC concentrations, in words ([2]; 200 μg chelator intraventricular prior to 250 μg 6-OHDA): efficiently prevented | protection against 6-OHDA toxicity, in words ([2]; 5 mg/Kg i.p. for 10 days before intraventricular 250 μg 6-OHDA): Partial but significant protection; also recorded: partially protected | (DOPAC + HAV)/DA (dopamine turnover) [2, 4]: 0.15 | 5-HIAA in rat striatum [2, 5]: 4.48 ± 0.38 pmol/mg tissue | 5-HT in rat striatum [2, 5]: 4.24 ± 0.43 pmol/mg tissue | DA in rat striatum [2, 5]: 33.8 ± 4.3 pmol/mg tissue | DOPAC in rat striatum [2, 5]: 2.45 ± 0.25 pmol/mg tissue | HVA in rat striatum [2, 5]: 2.67 ± 0.33 pmol/mg tissue | NE in rat striatum [2, 5]: 5.01 ± 0.1 pmol/mg tissue | 5-HIAA in rat striatum [2, 6]: 4.98 ± 0.46 pmol/mg tissue | 5-HT in rat striatum [2, 6]: 4.84 ± 0.45 pmol/mg tissue | (DOPAC + HAV)/DA (dopamine turnover) [2, 6]: 0.08 | DA in rat striatum [2, 6]: 62.9 ± 3.13 pmol/mg tissue | DOPAC in rat striatum [2, 6]: 2.49 ± 0.13 pmol/mg tissue | HVA in rat striatum [2, 6]: 2.77 ± 0.25 pmol/mg tissue | NE in rat striatum [2, 6]: 1.3 ± 0.12 pmol/mg tissue | 5-HIAA in rat striatum [2, 7]: 1.59 ± 0.16 pmol/mg tissue | 5-HT in rat striatum [2, 7]: 2.6 ± 0.31 pmol/mg tissue | (DOPAC + HAV)/DA (dopamine turnover) [2, 7]: 0.15 | DA in rat striatum [2, 7]: 24.4 ± 4.4^ab pmol/mg tissue | DOPAC in rat striatum [2, 7]: 1.4 ± 0.25 pmol/mg tissue | HVA in rat striatum [2, 7]: 2.28 ± 0.75 pmol/mg tissue | NE in rat striatum [2, 7]: 1.21 ± 0.4 pmol/mg tissue

CC(=O)N(O)CCCCCNC(=O)CCC(=O)N(O)CCCCCNC(=O)CCC(=O)N(O)CCCCCN [desferrioxamine]
protection against the 6-OHDA-induced reduction in striatal DA content ([3]; 13 ng i.c.v. prior to 6-OHDA (250 μg)): 100% | protection against the 6-OHDA-induced reduction in striatal DA content ([3]; 130 ng i.c.v. prior to 6-OHDA (250 μg)): ~60% | DA release (HVA/DA ratio), in words ([3]; desferrioxamine i.c.v. prior to 6-OHDA): normalization of DA release | dopaminergic-related behavioral responses (spontaneous movements in a novel environment, rearing), in words ([3]; desferrioxamine-pretreated rats, 6-OHDA): almost normal behavioral responses | protection against 6-OHDA-induced lesions of nigrostriatal dopamine neurons, in words ([3]; rats): protected
